Reference: patent publication US20230013602A1, “NOVEL IMIDAZOPYRAZINE DERIVATIVES” (Hoffmann-La Roche Inc., priority 2018, published 2023)
Counter-ions that a name gives are not always drawn.

Columns and labels:
[1] = test system: Acinetobacter baumannii ATCC 17978; experiment: Antimicrobial susceptibility testing, 90% growth inhibitory concentration (IC90) determination; assay type: cell-based; conditions: Acinetobacter baumannii ATCC17978, Iso-Sensitest broth, OD 600 nm over 16 h
Protocol: (§1) The in vitro antimicrobial activity of the compounds was determined according to the following procedure:
(§2) The assay used a 10-points Iso-Sensitest broth medium to measure quantitatively the in vitro activity of the compounds against Acinetobacter baumannii ATCC 17978 and Acinetobacter baumannii ATCC17961.
(§3) Stock compounds in DMSO were serially twofold diluted (e.g. range from 50 to 0.097 μM final concentration) in 384 wells microtiter plates and inoculated with 49 μl the bacterial suspension in Iso-Sensitest medium to have a final cell concentration of ˜5×10^(5) CFU/ml in a final volume/well of 50 ul/well. Microtiter plates were incubated at 35+2° C.
(§4) Bacterial cell growth was determined with the measurement of optical density at X=600 nm each 20 minutes over a time course of 16 h. Growth inhibition was calculated during the logarithmic growth of the bacterial cells with determination of the concentration inhibiting 50% (IC50) and 90% (IC90) of the growth.
(§5) Table 1 provides the 90% growth inhibitory concentrations (IC90) in micromoles per liter of the compounds of present invention obtained against the strain Acinetobacter baumannii ATCC17978 and Acinetobacter baumannii ATCC17961.

[2] = test system: Acinetobacter baumannii ATCC17961; experiment: as above; assay type: cell-based; conditions: 90% growth inhibitory concentration, Acinetobacter baumannii ATCC17961, Iso-Sensitest broth, OD 600 nm over 16 h; read-out: ATCC17961 IC90
Protocol: as §1, §2, §3, §4, §5

| SMILES | IC90 [1] | IC90 [2] |
| --- | --- | --- |
| CCc1cc(Nc2nccn3c(-c4ccc(OC)c(F)c4F)cnc23)ccc1C(=O)N[C@H]1CC[C@@H](N)CC1 [Example 6, Cis-N-(4-aminocyclohexyl)-4-[[3-(2,3-difluoro-4-methoxy-phenyl)imidazo[1,2-a]pyrazin-8-yl]amino]-2-ethyl-benzamide] | 88 nM | 88 nM |
| CCc1cc(Nc2nccn3c(-c4ccc(OC)c(F)c4F)cnc23)ccc1C(=O)NC1(CNC(=N)N)CC1 [Example 18, N-[1-(carbamimidamidomethyl)cyclopropyl]-4-[[3-(2,3-difluoro-4-methoxyphenyl)imidazo[1,2-a]pyrazin-8-yl]amino]-2-ethylbenzamide] | 84 nM | 83 nM |
| CCc1cc(Nc2nccn3c(-c4ccc(OC)c(F)c4F)cnc23)ccc1C(=O)N[C@H]1C[C@@H](N)C1 [Example 11, Cis N-(3-aminocyclobutyl)-4-[[3-(2,3-difluoro-4-methoxy-phenyl)imidazo[1,2-a]pyrazin-8-yl]amino]-2-ethyl-benzamide] | 84 nM | 84 nM |
| COc1ccc(-c2cnc3c(Nc4ccc(C(=O)N[C@H]5C[C@@H](N)C5)c(C)c4)nccn23)c(F)c1F [Example 35, N-(3-aminocyclobutyl)-4-[[3-(2,3-difluoro-4-methoxyphenyl)imidazo[1,2-a]pyrazin-8-yl]amino]-2-methylbenzamide] | 63 nM | 62 nM |
| CCc1cc(Nc2nccn3c(-c4ccc(OC)c(F)c4F)cnc23)ccc1C(=O)NC1CCC1N (centres unmarked) [Example 39, N-(2-aminocyclobutyl)-4-[[3-(2,3-difluoro-4-methoxyphenyl)imidazo[1,2-a]pyrazin-8-yl]amino]-2-ethylbenzamide] | 290 nM | 288 nM |
| CCc1cc(Nc2nccn3c(-c4ccc(OC)c(F)c4F)cnc23)ccc1C(=O)N[C@H]1C[C@H](N)C1 [Example 14, N-(3-aminocyclobutyl)-4-[[3-(2,3-difluoro-4-methoxy-phenyl)imidazo[1,2-a]pyrazin-8-yl]amino]-2-ethyl-benzamide] | 250 nM | 248 nM |
| CCc1cc(Nc2nccn3c(-c4ccc(OC)c(F)c4F)cnc23)ccc1C(=O)NC1CCNCC1 [Example 13, 4-[[3-(2,3-difluoro-4-methoxy-phenyl)imidazo[1,2-a]pyrazin-8-yl]amino]-2-ethyl-N-(4-piperidyl)benzamide] | 280 nM | 276 nM |
| CCc1cc(Nc2nccn3c(-c4ccc(OC)c(F)c4F)cnc23)ccc1C(=O)NC1(CNC(C)=N)CC1 [Example 19, 4-[[3-(2,3-difluoro-4-methoxyphenyl)imidazo[1,2-a]pyrazin-8-yl]amino]-N-[1-[(ethanimidoylamino)methyl]cyclopropyl]-2-ethylbenzamide] | 150 nM | 154 nM |
| COc1ccc(-c2cnc3c(Nc4ccc(C(=O)N[C@H]5CC[C@@H](NC(=O)[C@@H]6C[C@@H](O)CN6)CC5)c(C)c4)nccn23)c(F)c1F [Example 34, (2S,4R)-N-[4-[[4-[[3-(2,3-difluoro-4-methoxyphenyl)imidazo[1,2-a]pyrazin-8-yl]amino]-2-methylbenzoyl]amino]cyclohexyl]-4-hydroxypyrrolidine-2-carboxamide] | 54 nM | 54 nM |
| COc1ccc(-c2cnc3c(Nc4ccc(C(=O)NC5CCC(NC(=O)[C@@H]6C[C@@H](O)CN6)C5)c(C)c4)nccn23)c(F)c1F (mixture of isomers) [Example 36, rac-(2R,4S)-N-[3-[[4-[[3-(2,3-difluoro-4-methoxyphenyl)imidazo[1,2-a]pyrazin-8-yl]amino]-2-methylbenzoyl]amino]cyclopentyl]-4-hydroxypyrrolidine-2-carboxamide] | 72 nM | 72 nM |
| CCc1cc(Nc2nccn3c(-c4ccc(OC)c(F)c4F)cnc23)ccc1C(=O)N[C@@H]1CCCC[C@@H]1N (racemic) [Example 8, rac-N-((1R,2S)-2-aminocyclohexyl)-4-((3-(2,3-difluoro-4-methoxyphenyl)imidazo[1,2-a]pyrazin-8-yl)amino)-2-ethylbenzamide] | 850 nM | 852 nM |
| COc1ccc(-c2cnc3c(Nc4ccc(C(=O)NC5CCN(C(=O)[C@@H]6C[C@@H](O)CN6)CC5)c(C)c4)nccn23)c(F)c1F [Example 32, 4-[[3-(2,3-difluoro-4-methoxyphenyl)imidazo[1,2-a]pyrazin-8-yl]amino]-N-[1-[(2S,4R)-4-hydroxypyrroIidine-2-carbonyl]piperidin-4-yl]-2-methylbenzamide] | 66 nM | 66 nM |
| COc1ccc(-c2cnc3c(Nc4ccc(C(=O)N[C@H]5CC[C@@H](NC(=C(C)C)N(C)C)CC5)c(C)c4)nccn23)c(F)c1F [Example 33, 4-[[3-(2,3-difluoro-4-methoxyphenyl)imidazo[1,2-a]pyrazin-8-yl]amino]-N-[4-[[1-(dimethylamino)-2-methylprop-1-enyl]amino]cyclohexyl]-2-methylbenzamide;formic acid] | 75 nM | 75 nM |
| Cc1cc(Nc2nccn3c(-c4ccc(OC(F)F)cc4)cnc23)ccc1C(=O)N[C@H]1[C@@H](O)[C@H](O)[C@@H](CO)O[C@@H]1O [Example 23, 4-[[3-[4-(difluoromethoxy)phenyl]imidazo[1,2-a]pyrazin-8-yl]amino]-2-methyl-N-[(2S,3S,4R,5S,6R)-2,4,5-trihydroxy-6-(hydroxymethyl)oxan-3-yl]benzamide] | 8000 nM |  |
| CCc1cc(Nc2nccn3c(-c4ccc(OC)c(F)c4F)cnc23)ccc1C(=O)N[C@H]1CCC[C@@H]1N [Example 9, N-((1S,2S)-2-aminocyclopentyl)-4-((3-(2,3-difluoro-4-methoxyphenyl)imidazo[1,2-a]pyrazin-8-yl)amino)-2-ethylbenzamide] | 300 nM | 297 nM |

The next lines start with the values.

| IC90 [1] | IC90 [2] | SMILES |
| --- | --- | --- |
| 53 nM | 53 nM | COc1ccc(-c2cnc3c(Nc4ccc(C(=O)N[C@H]5CC[C@@H](N)CC5)c(C)c4)nccn23)c(F)c1F [Example 31, N-(4-aminocyclohexyl)-4-[[3-(2,3-difluoro-4-methoxyphenyl)imidazo[1,2-a]pyrazin-8-yl]amino]-2-methylbenzamide] |
| 99 nM | 99 nM | CCc1cc(Nc2nccn3c(-c4ccc(OC)c(F)c4F)cnc23)ccc1C(=O)N[C@H]1C[C@@H](NC(=O)[C@@H](N)CCCNC(=N)N)C1 [Example 37, N-[3-[[(2S)-2-amino-5-carbamimidamidopentanoyl]amino]cyclobutyl]-4-[[3-(2,3-difluoro-4-methoxyphenyl)imidazo[1,2-a]pyrazin-8-yl]amino]-2-ethylbenzamide;2,2,2-trifluoroacetic acid] |
| 180 nM | 176 nM | CCc1cc(Nc2nccn3c(-c4ccc(OC)c(F)c4F)cnc23)ccc1C(=O)N[C@H]1CC[C@@H](NC(=O)[C@@H](N)CCCNC(=N)N)CC1 [Example 5, N-[4-[[(2S)-2-amino-5-guanidino-pentanoyl]amino]cyclo-hexyl]-4-[[3-(2,3-difluoro-4-methoxy-phenyl)imidazo[1,2-a]pyrazin-8-yl]amino]-2-ethyl-benzamide trifluoroacetate] |
| 160 nM | 162 nM | COc1ccc(-c2cnc3c(Nc4ccc(C(=O)N[C@@H]5CCNC5)c(C)c4)nccn23)c(F)c1F [Example 38, 4-[[3-(2,3-difluoro-4-methoxyphenyl)imidazo[1,2-a]pyrazin-8-yl]amino]-2-methyl-N-[(3R)-pyrrolidin-3-yl]benzamide] |
| 230 nM | 230 nM | CCc1cc(Nc2nccn3c(-c4ccc(OC)c(F)c4F)cnc23)ccc1C(=O)NC1CNC1 [Example 12, N-(azetidin-3-yl)-4-[[3-(2,3-difluoro-4-methoxy-phenyl)imidazo[1,2-a]pyrazin-8-yl]amino]-2-ethyl-benzamide] |
| 320 nM | 274 nM | CCc1cc(Nc2nccn3c(-c4ccc(OC)c(F)c4F)cnc23)ccc1C(=O)NC1(CN)CC1 [Example 4, N-(1-(aminomethyl)cyclopropyl)-4-((3-(2,3-difluoro-4-methoxyphenyl)imidazo[1,2-a]pyrazin-8-yl)amino)-2-ethylbenzamide hydrochloride] |
| 290 nM | 290 nM | COc1ccc(-c2cnc3c(Nc4ccc(C(=O)N(C)CCC(=O)N5CCNCC5)c(C)c4)nccn23)cc1F [Reference Example 10, 4-[[3-(3-fluoro-4-methoxy-phenyl)imidazo[1,2-a]pyrazin-8-yl]amino]-N,2-dimethyl-N-(3-oxo-3-piperazin-1-yl-propyl)benzamide] |
| 2600 nM |  | COc1ccc(-c2cnc3c(Nc4ccc(C(=O)N(C)[C@@H]5CNC[C@H]5O)c(C)c4)nccn23)cc1F [Example 17, 4-[[3-(3-fluoro-4-methoxyphenyl)imidazo[1,2-a]pyrazin-8-yl]amino]-N-[(3R,4R)-4-hydroxypyrrolidin-3-yl]-N,2-dimethylbenzamide;hydrochloride] |
